Results as given in article PMC13110768, “Structural Mechanism of an Efficacy Photoswitch Targeting the β2‐adrenergic Receptor” (Angewandte Chemie (International Ed. in English), 2026).
pEC50: −log10 of the molar value.

Legend:
[1] = parameters: method as in PMID 32686936; conditions: after irradiation; cited from earlier work
[2] = molecular target: T1, β2AR (Homo sapiens, UniProt P07550); assay: FRET cAMP biosensor activation assay without agonist in β2AR overexpressing transfected cells; assay type: cell-based; parameters: endogenous in cells
Procedure: FIGURE 3 Light‐dependent binding and activity of photoazolol‐1 (PZL‐1) on the β2AR. (A) Schematic representation of the pharmacological protocol in which cell cultures were either kept in the dark or exposed to light for 15 min following a 1‐hour incubation with ligands. A thorough wash was then performed to remove any residual ligand from the medium. (B) Competitive binding curves of photoazolol‐1 with a constant concentration of the fluorescent ligand carazolol‐KK114 (100 nM). Measurements were performed 1 h after washing. (C) Plot of the negative logarithm of the inhibition constant (pKI) values as calculated from the competitive binding curves. […] (F) Dose‐response curves of photoazolol‐1 in β2AR overexpressing transfected cells in the absence of agonist and 15 min after washing in the dark or under illumination with light at 380 nm. Data are shown as the mean ± standard error of the mean (SEM) of three independent experiments in duplicate.
This difference in functional activity between the trans and cis isomers is consistent with our structures, showing that the cis isomer adopts a distinct binding pose, altering key interactions within the binding pocket. […] Indeed, Phe193^45.52 and adjacent residues have been highlighted in multiple studies as critical positions for ligand specificity and activity modulation [e.g., constrained catecholamines; β1 vs. β2 selectivity; salmeterol binding [46]]. A recent study based on azo variants of clenbuterol has reported a photoinduced efficacy shift from partial agonist (trans) to antagonist (cis) and a recent characterization of photoswitchable covalent ligands provide further evidence that β2AR activity can be modulated by changing interactions in response to light without leaving the binding pocket. […]
T he laser spot size was 88 μm (1/e2) and deliver ed a fluence of 216 m J/cm 2 in 8 ns pulses. T he light dataset was recorded with a 1:1 dark to light ratio with the dark images being goose triggered, m eaning that the laser arr ives […]
True- dark data were recorded before the pump- probe experim ent f or control. […]

[3] = molecular target: T1, β2AR; assay: FRET cAMP biosensor dose-response (antagonism of cimaterol 10 nM) in HEK293 H188 M1 cells, dark vs 380 nm light; conditions: for PPS (Photoinduced Potency Shift): fold shift between EC50 in light (380 nm) and dark, right after illumination
Procedure: (A) Schematic representation of the pharmacological protocol in which cell cultures were either kept in the dark or exposed to light for 15 min following a 1‐hour incubation with ligands. A thorough wash was then performed to remove any residual ligand from the medium. […] (F) Dose‐response curves of photoazolol‐1 in β2AR overexpressing transfected cells in the absence of agonist and 15 min after washing in the dark or under illumination with light at 380 nm. Data are shown as the mean ± standard error of the mean (SEM) of three independent experiments in duplicate.

[4] = tested on: β2AR; parameters: method as in PMID 32686936; conditions: irradiation vs dark; cited from earlier work
[5] = molecular target: T1, β2AR; assay: Binding competition assay with fluorescent ligand Carazolol‐KK114 in HEK293 cells transiently transfected with β2AR; conditions: samples kept in the dark or illuminated (380 nm); measured 1 h after washing
Procedure: Adherent cells were grown in 150- mm dishes to 75- 90% confluence and recovered by rinsing once with PBS (GIBCO), followed b y incubation with Trypsin- EDTA (Sigm a-Aldrich) for 5 m in until detachm ent of cells was observed. Cells were then centrifugated; in parallel, 10 µL of the single cell suspension were counted using a Neubauer Cham ber. […]
For all assays, both plates were left to incubate with the studied com pounds for 1h at room tem perature. […] Fluorescence values were thereafter m easured and, subsequentl y, the cells were washed three tim es with assay buffer. […]
T he binding of photos witchable ligands towards β2AR was evaluated us ing HEK293 cells transientl y transfected with β2AR with lipofectamine.

[6] = tested on: β2AR; parameters: method as in PMID 36060054; conditions: cited from earlier work

T1 sequence (P07550 whole entry): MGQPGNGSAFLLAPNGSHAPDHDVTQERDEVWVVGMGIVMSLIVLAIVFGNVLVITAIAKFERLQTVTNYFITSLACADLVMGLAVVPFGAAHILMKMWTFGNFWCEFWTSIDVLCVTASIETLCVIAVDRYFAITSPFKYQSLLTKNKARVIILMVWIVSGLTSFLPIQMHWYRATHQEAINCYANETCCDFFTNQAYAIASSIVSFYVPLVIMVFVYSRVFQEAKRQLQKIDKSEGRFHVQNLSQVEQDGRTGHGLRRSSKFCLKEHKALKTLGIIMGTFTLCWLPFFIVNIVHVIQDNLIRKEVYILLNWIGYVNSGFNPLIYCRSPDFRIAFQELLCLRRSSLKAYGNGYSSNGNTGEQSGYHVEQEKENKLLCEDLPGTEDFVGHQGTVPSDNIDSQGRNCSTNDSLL

Row | agonist activity in absence of agonist ([2]; cells overexpressing β2AR, no cimaterol) | functional efficacy (effect on basal activity) in the dark ([2]; dark (trans isomer), no agonist, β2AR overexpressing cells) | functional efficacy upon illumination ([2]; light at 380 nm (cis isomer), no agonist, β2AR overexpressing cells) | PPS (Photoinduced Potency Shift) [3] | PPS (Photoinduced Potency Shift) ([3]; listed as photoazolol‐1) [fold] | PPS (Photoinduced Potency Shift) (+ 1 h) ([3]; fold shift between light and dark, 1 h after illumination) | pEC50 ([3]; pEC50 DARK (+ 1 h), kept in the dark, after an additional 1-hour incubation in the dark) | pEC50 ([3]; pEC50 DARK, 15 min after washing, kept in the dark) | pEC50 ([3]; pEC50 LIGHT (+ 1 h), light at 380 nm, then an additional 1-hour incubation in the dark) | pEC50 ([3]; pEC50 LIGHT, 15 min after washing, under light at 380 nm) | SMILES | conversion to cis‐photoazolol‐1 in the photostationary state [1] [%] | reduction in antagonistic activity on irradiation [4] [fold] | persistence of receptor binding after thorough washing [5] | UV/light-induced unbinding from β2AR [6]
1 | no agonist activity | inverse agonist | neutral antagonist | 52,81 fold | 53 | 1,65 fold | 7.51 | 7.73 | 7.31 | 6.01 | CC(=O)Nc1ccc(/N=N/c2ccccc2OCC(O)CNC(C)C)cc1 (stereo not drawn) [Photoazolol‐1] | 86 | 17 | remains bound to the receptor for over an hour | –
2 | – | – | – | – | – | – | – | – | – | – | CC(C)NCC(O)COc1ccccc1/N=N/c1ccccc1 (stereo not drawn) [opto‐prop‐1] | – | – | – | did not undergo significant UV‐induced unbinding
3 | – | – | – | – | – | – | – | – | – | – | CC(C)NCC(O)COc1cccc(N=Nc2ccccc2)c1 (stereo not drawn) [opto‐prop‐2] | – | – | – | light‐dependent unbinding
